Measurements as given in BigSolDB 2.1.

CC1(C)COP(=O)(O)OC1c1ccccc1Cl (centres undefined)
solubility (mole fraction)
Conditions	in acetic acid	in ethanol	in isopropanol	in methanol	in tert-butanol	in water
278.15 K	–	0.00426	0.0114	0.00445	–	0.000124
283.15 K	–	0.00473	0.0135	0.00519	–	0.000123
288.15 K	–	0.00536	0.016	0.00572	–	0.000136
293.15 K	0.00131	0.00614	0.0176	0.00644	–	0.000157
298.15 K	0.00156	0.00685	0.0207	0.00713	–	0.000162
303.15 K	0.00186	0.00783	0.0251	0.00809	0.0228	0.000164
308.15 K	0.00221	0.00884	0.029	0.00892	0.0281	0.000166
313.15 K	0.0025	0.00995	0.0342	0.0105	0.0313	0.000168
318.15 K	0.00277	0.0121	0.0391	0.0125	0.0359	0.00017
323.15 K	0.00341	0.0135	0.0448	0.0145	0.0398	–
328.15 K	0.0039	–	–	–	0.0469	–
333.15 K	0.00449	–	–	–	0.051	–
338.15 K	0.00523	–	–	–	0.0574	–
343.15 K	–	–	–	–	0.0629	–
348.15 K	–	–	–	–	0.0691	–
